{"source": "paper PMC9606187", "about": "“Dual HDAC/BRD4 Inhibitors Relieves Neuropathic Pain by Attenuating Inflammatory Response in Microglia After Spared Nerve Injury” (Neurotherapeutics, 2022)", "key": {"SNI mice [1]": {"tested_on": "SNI mice", "assay": "Rotarod test", "format": "in vivo", "conditions": "50 µM i.n., vs vehicle-treated SNI mice", "description": "The possible alteration of motor performance induced by each treatment was assessed by rotarod test, as previously described. The integrity of motor coordination was assessed as number of falls from the rod in 30 s."}, "[2]": {"assay": "Intrinsic fluorescence of the compound in spinal cord after i.n. delivery", "format": "in vivo, mice", "text": "On postsurgical day 14, animals were perfused transcardially with 4% paraformaldehyde in 0.1 M phosphate buffer (PBS, pH 7.4). After perfusion, lumbar spinal cord was quickly removed and processed as previously described. Four animals per groups were used for this analysis. […] Primary antibody used was IBA1 (1:100; Santa Cruz Biotechnology Cat# sc-32725, RRID:AB_667733). […] A Leica DM6000B fluorescence microscope equipped with a DFC350FX digital camera with appropriate excitation and emission filters for each fluorophore was used to acquire representative images. […] The immunofluorescence intensity was calculated by ImageJ (Wayne Rasband, National Institute of Health, USA).\nCo-localization of two different labels was measured using EzColocalization plugin (ImageJ). The extent of co-localization was determined by calculating the Mander’s overlap coefficient (MOC) and the Pearson’s correlation coefficient (PCC). […] PCC quantify the correlation between individual fluorophores considering their intensities. PCC is characterized by determined value range: −1, which indicate anticolocalization; +1, which indicates colocalization; 0, which indicates there is no colocalization."}, "SNI mice [3]": {"tested_on": "SNI mice", "assay": "Observation of sedation or motor dysfunction", "format": "in vivo", "conditions": "single administration 50 µM i.n."}, "[4]": {"target": "T1, Recombinant Human Bromodomain containing protein 4, bromodomain 2 (BRD4-BD2) (Homo sapiens, UniProt O60885)", "T1 construct": "purchased Reaction Biology (RBC) RD-11–141; host or cells: E. coli", "assay": "AlphaScreen bromodomain binding assay (Reaction Biology), BRD4-2", "description": "The reader assay is a binding assay using AlphaScreen technology […] assay and was performed by Reaction Biology (www.reactionbiology.com). The biotinylated peptide binding to the reader domain of His-tagged protein is monitored by the singlet oxygen transfer from the Streptavidin-coated donor beads to the AlphaScreen Ni-chelate acceptor beads.\nReaction buffer: 50 mM Hepes, pH7.5, 100 mM NaCl, 0.05% CHAPS, 0.1% BSA, and 1% DMSO (the final DMSO concentration may differ depending on compound stock and test concentrations).\nBromodomain: BRD4-1: RBC Cat# RD-11–140: Recombinant Human Bromodomain containing protein 4, bromodomain 1 (aa 44–170; Genbank Accession # NM_058243), expressed in E. coli with N-terminal His-tag. MW = 17.8 kDa; BRD4-2: RBC Cat# RD-11–141: Recombinant Human Bromodomain containing protein 4, bromodomain 2 (aa 349–460;Genbank Accession # NM_058243), expressed in E. coli with N-terminal His-tag. MW = 15.7 kDa. Ligand (C-term-Biotin): Histone H4 peptide (1–21) K5/8/12/16Ac-Biotin. Detection beads: PerkinElmer: Donor beads: Streptavidin-coated donor beads; Acceptor beads: AlphaScreen Ni acceptor beads.\nReaction procedure: • Deliver 2.5X BRD in wells of reaction plate except No BRD control wells. Add buffer instead. • Deliver compounds in 100% DMSO into the BRD mixture by Acoustic technology (Echo550; nanoliter range). Spin down and pre-incubation for 30 min. • Deliver 5X Ligand. Spin and shake. • Incubate for 30 min at room temperature with gentle shaking. • Deliver 5X donor beads. Spin and shake. • Deliver 5X acceptor beads. Spin and shake. Then gentle shaking in the dark for 60 min. • Alpha measurement (Ex/Em = 680/520–620 nm) in Enspire."}, "SNI mice [5]": {"tested_on": "SNI mice", "assay": "Hole-board test", "format": "in vivo", "conditions": "50 µM i.n., vs vehicle-treated SNI mice", "description": "The spontaneous locomotor behavior was evaluated by using the hole-board test. Movements of the animal on the plane represent the spontaneous mobility, and the head-dips in the holes by the mice represent the exploratory activity."}, "HDAC1": {"tested_on": "HDAC1", "assay": "Western blot of lumbar spinal cord, HDAC1", "format": "in vivo, mice", "conditions": "SNI ipsilateral side, day 7 and 14 post-surgery, i.n.", "description": "(§1) The lumbar spinal cord was removed 7 and 14 days after surgery and 90 min after the intranasal administration of SUM52, corresponding to the peack of the effect. Samples (n = 4 for groups) were homogenized in a homogenization buffer and processed as previously described. Protein samples (40 µg of protein/sample) were separated on 10% SDS-PAGE and transferred onto nitrocellulose membranes (120 min at 100 V) using standard procedures. Membranes were blocked in PBST (PBS containing 0.1% Tween) containing 5% nonfat dry milk for 120 min. […] Blots were then extensively washed and developed using enhanced chemiluminescence detection system (Pierce, Milan, Italy) and signal intensity (pixels/mm^2) quantified (ImageJ, NIH). […] For each sample, the signal intensity was normalized to that of total protein stained by Ponceau S and the acquired images were quantified using Image Lab software. […]"}, "iNOS (NOS2)": {"tested_on": "iNOS (NOS2)", "assay": "Western blot of lumbar spinal cord, iNOS", "format": "in vivo, mice", "conditions": "SNI ipsilateral side, day 7 and 14", "description": "as §1"}}, "data": [{"smiles": "Cc1nnc2n1-c1ccccc1C(c1ccccc1)=N[C@H]2CC(=O)NCCCCCCC(=O)NO", "note": "[SUM52, (S)-N-hydroxy-7-(2-(1-methyl-6-phenyl-4H-benzo[f][1,2,4]triazolo[4,3-a][1,4]diazepin-4-yl)acetamido)heptanamide]", "values": [{"measurement": "motor coordination (rotarod test)", "setting": "SNI mice [1]", "result": "no alteration"}, {"measurement": "distribution to spinal cord (intrinsic fluorescence)", "setting": "[2]; after i.n. delivery, vs vehicle-treated mice", "result": "able to reach the spinal cord and diffuse into the tissue"}, {"measurement": "intrinsic fluorescence in microglial cells", "setting": "[2]; spinal cord sections of SNI mice, IBA1 co-staining", "result": "detected in IBA1 positive microglial cells"}, {"measurement": "apparent sedation or motor dysfunction", "setting": "SNI mice [3]", "result": "No animal showed apparent sedation or motor dysfunction"}, {"measurement": "IC50", "setting": "[4]", "result": 0.0105, "unit": "µM"}, {"measurement": "preference between BRD4-BD1 and BRD4-BD2 domains", "setting": "[4]; BRD4-BD1 vs BRD4-BD2", "result": "preferential interaction for BRD4-BD2"}, {"measurement": "exploratory activity (hole board test)", "setting": "SNI mice [5]", "result": "no alteration"}, {"measurement": "spontaneous mobility (hole board test)", "setting": "SNI mice [5]", "result": "no alteration"}, {"measurement": "spinal HDAC1 protein expression", "setting": "HDAC1", "result": "restored both epigenetic enzyme levels to control values"}, {"measurement": "NOS2 (iNOS) expression", "setting": "iNOS (NOS2)", "result": "reduced NOS2 overactivation"}]}]}
